Experimental data from ChEMBL document CHEMBL3232845 (Bioorg Med Chem Lett, 2014).
pIC50: −log10 of the molar value.

What was measured:
[1] = target: Dual specificity mitogen-activated protein kinase kinase 6 (Homo sapiens) (UniProt P52564); test: Inhibition of human MKK6 assessed as enzyme activity at 1 uM relative to control; parameters: scale not given: the % may be the effect or the level left
[2] = target: Serine/threonine-protein kinase TAO2 (Homo sapiens) (UniProt Q9UL54); test: Inhibition of human TAO2 assessed as enzyme activity at 1 uM relative to control; parameters: scale not given: the % may be the effect or the level left
Chain of Serine/threonine-protein kinase TAO2 (Homo sapiens) (Q9UL54 whole entry): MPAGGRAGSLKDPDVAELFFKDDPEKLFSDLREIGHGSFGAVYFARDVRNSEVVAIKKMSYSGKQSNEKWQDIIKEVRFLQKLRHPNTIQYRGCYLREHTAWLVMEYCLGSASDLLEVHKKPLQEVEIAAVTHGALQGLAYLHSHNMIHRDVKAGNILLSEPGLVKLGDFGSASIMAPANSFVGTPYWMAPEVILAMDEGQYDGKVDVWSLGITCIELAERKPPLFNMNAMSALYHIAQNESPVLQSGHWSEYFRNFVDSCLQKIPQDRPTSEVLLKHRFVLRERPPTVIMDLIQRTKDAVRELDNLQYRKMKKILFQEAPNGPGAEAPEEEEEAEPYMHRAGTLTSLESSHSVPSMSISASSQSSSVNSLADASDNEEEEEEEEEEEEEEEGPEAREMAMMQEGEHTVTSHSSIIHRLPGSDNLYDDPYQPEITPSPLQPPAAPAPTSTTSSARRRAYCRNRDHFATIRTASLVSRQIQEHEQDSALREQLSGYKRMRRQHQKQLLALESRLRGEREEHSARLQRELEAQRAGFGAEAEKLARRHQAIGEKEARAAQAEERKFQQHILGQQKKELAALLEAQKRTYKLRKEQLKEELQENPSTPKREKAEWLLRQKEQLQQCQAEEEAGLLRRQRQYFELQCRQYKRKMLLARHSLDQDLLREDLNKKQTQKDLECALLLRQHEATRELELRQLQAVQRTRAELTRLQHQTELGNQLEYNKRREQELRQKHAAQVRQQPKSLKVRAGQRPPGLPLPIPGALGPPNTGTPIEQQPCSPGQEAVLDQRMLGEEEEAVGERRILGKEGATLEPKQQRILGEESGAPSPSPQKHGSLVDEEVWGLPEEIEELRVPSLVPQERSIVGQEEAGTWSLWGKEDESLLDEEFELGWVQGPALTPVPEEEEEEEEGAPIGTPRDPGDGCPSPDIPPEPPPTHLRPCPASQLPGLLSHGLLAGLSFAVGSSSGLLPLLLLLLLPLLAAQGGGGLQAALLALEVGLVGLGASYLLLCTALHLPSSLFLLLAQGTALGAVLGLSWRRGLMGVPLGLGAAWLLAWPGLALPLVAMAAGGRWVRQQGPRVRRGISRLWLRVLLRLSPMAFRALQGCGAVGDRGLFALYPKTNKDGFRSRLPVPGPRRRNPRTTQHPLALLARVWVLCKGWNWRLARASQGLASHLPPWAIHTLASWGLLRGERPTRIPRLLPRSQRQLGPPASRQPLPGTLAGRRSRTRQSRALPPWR

[3] = target: Myotonin-protein kinase (Homo sapiens) (UniProt Q09013); test: Inhibition of human DMPK assessed as enzyme activity at 1 uM relative to control; parameters: scale not given: the % may be the effect or the level left
[4] = target: Serine/threonine-protein kinase 4 (Homo sapiens) (UniProt Q13043); test: Inhibition of human MST1 assessed as enzyme activity at 1 uM relative to control; parameters: scale not given: the % may be the effect or the level left
[5] = target: cAMP-dependent protein kinase catalytic subunit PRKX (Homo sapiens) (UniProt P51817); test: Inhibition of human PrKX assessed as enzyme activity at 1 uM relative to control; parameters: scale not given: the % may be the effect or the level left
Chain of cAMP-dependent protein kinase catalytic subunit PRKX (Homo sapiens) (P51817 whole entry): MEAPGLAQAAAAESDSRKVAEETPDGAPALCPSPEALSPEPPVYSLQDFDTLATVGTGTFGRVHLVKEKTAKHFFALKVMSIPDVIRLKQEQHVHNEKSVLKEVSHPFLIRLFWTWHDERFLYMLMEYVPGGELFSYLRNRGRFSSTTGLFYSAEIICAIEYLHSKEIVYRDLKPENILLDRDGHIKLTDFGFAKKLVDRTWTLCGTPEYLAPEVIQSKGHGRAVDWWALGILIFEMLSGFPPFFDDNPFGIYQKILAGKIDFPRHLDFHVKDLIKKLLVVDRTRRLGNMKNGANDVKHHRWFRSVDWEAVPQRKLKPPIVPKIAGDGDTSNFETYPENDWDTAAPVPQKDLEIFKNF

[6] = target: Tyrosine-protein kinase JAK2 (Homo sapiens) (UniProt O60674); test: Inhibition of human JAK2 assessed as enzyme activity at 1 uM relative to control; parameters: scale not given: the % may be the effect or the level left
[7] = target: Tyrosine-protein kinase ABL2 (Homo sapiens) (UniProt P42684); test: Inhibition of human Abl2 assessed as enzyme activity at 1 uM relative to control; parameters: scale not given: the % may be the effect or the level left
[8] = target: Serine/threonine-protein kinase B-raf (Homo sapiens, UniProt P15056, V600E); test: Inhibition of full-length B-Raf V600E mutant (unknown origin)
[9] = Antitumor activity against human LOX cells expressing B-Raf V600E mutant xenografted in nude mouse assessed as tumor growth inhibition at 30 mg/kg qd for 4 days measured on day 8; assay type: functional; conditions: read-out: TGI
[10] = target: Ephrin type-A receptor 4 (Homo sapiens) (UniProt P54764); test: Inhibition of human EphA4 assessed as enzyme activity at 1 uM relative to control; parameters: scale not given: the % may be the effect or the level left
[11] = tested on: Saccharomyces cerevisiae; test: Inhibition of yeast CK1 assessed as enzyme activity at 1 uM relative to control; parameters: scale not given: the % may be the effect or the level left
[12] = target: Calcium/calmodulin-dependent protein kinase type 1D (Homo sapiens) (UniProt Q8IU85); test: Inhibition of human CAMK1d assessed as enzyme activity at 1 uM relative to control; parameters: scale not given: the % may be the effect or the level left
Chain of Calcium/calmodulin-dependent protein kinase type 1D (Homo sapiens) (Q8IU85 whole entry, looked up): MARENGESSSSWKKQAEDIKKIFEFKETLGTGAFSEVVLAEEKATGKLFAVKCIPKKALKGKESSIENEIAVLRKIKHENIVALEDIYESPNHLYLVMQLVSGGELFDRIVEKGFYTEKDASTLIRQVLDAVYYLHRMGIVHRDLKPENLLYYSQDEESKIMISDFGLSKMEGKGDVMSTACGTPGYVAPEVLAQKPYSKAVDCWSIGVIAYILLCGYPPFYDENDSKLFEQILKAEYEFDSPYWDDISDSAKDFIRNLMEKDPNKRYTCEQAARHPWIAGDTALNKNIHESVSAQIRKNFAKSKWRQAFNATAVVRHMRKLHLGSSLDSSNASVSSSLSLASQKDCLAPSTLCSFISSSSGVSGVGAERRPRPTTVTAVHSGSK

[13] = target: Tyrosine-protein kinase receptor TYRO3 (Homo sapiens) (UniProt Q06418); test: Inhibition of human Rse assessed as enzyme activity at 1 uM relative to control; parameters: scale not given: the % may be the effect or the level left
[14] = target: G protein-coupled receptor kinase 6 (Homo sapiens) (UniProt P43250); test: Inhibition of human GRK6 assessed as enzyme activity at 1 uM relative to control; parameters: scale not given: the % may be the effect or the level left
Chain of G protein-coupled receptor kinase 6 (Homo sapiens) (P43250 whole entry, looked up): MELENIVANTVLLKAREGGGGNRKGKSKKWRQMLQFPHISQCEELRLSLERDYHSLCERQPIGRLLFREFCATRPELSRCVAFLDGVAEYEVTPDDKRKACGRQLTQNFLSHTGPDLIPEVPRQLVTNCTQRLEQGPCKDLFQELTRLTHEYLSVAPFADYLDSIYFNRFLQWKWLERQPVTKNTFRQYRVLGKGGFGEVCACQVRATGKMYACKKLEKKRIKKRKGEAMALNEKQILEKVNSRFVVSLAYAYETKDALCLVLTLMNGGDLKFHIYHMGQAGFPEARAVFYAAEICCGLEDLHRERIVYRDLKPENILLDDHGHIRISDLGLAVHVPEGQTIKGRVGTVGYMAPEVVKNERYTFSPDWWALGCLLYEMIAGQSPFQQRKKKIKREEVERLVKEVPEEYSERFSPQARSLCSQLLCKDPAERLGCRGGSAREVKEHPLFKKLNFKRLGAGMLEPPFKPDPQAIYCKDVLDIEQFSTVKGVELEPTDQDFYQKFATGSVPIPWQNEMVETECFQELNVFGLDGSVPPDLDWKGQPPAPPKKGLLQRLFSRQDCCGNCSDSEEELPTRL

[15] = target: Tyrosine-protein kinase TXK (Homo sapiens) (UniProt P42681); test: Inhibition of human Txk assessed as enzyme activity at 1 uM relative to control; parameters: scale not given: the % may be the effect or the level left
[16] = target: Mitogen-activated protein kinase kinase kinase 9 (Homo sapiens) (UniProt P80192); test: Inhibition of human MLK1 assessed as enzyme activity at 1 uM relative to control; parameters: scale not given: the % may be the effect or the level left
[17] = target: Cyclin-dependent kinase 5/CDK5 activator 1 (Homo sapiens) (UniProt Q00535+Q15078); test: Inhibition of human CDK5/p25 assessed as enzyme activity at 1 uM relative to control; assay type: protein-complex assay; parameters: scale not given: the % may be the effect or the level left
[18] = target: Ephrin type-A receptor 2 (Homo sapiens) (UniProt P29317); test: Inhibition of human EphA2 assessed as enzyme activity at 1 uM relative to control; parameters: scale not given: the % may be the effect or the level left
[19] = target: Ephrin type-A receptor 7 (Homo sapiens) (UniProt Q15375); test: Inhibition of human EphA7 assessed as enzyme activity at 1 uM relative to control; parameters: scale not given: the % may be the effect or the level left
[20] = Clearance in mouse at 2.5 mg/kg, iv; assay type: ADME, organism-based; parameters: dose 2.5 mg/kg, route intravenous; conditions: in vivo
[21] = target: Tyrosine-protein kinase Fyn (Homo sapiens) (UniProt P06241); test: Inhibition of human Fyn assessed as enzyme activity at 1 uM relative to control; parameters: scale not given: the % may be the effect or the level left
Chain of Tyrosine-protein kinase Fyn (Homo sapiens) (P06241 2-537 limits assumed): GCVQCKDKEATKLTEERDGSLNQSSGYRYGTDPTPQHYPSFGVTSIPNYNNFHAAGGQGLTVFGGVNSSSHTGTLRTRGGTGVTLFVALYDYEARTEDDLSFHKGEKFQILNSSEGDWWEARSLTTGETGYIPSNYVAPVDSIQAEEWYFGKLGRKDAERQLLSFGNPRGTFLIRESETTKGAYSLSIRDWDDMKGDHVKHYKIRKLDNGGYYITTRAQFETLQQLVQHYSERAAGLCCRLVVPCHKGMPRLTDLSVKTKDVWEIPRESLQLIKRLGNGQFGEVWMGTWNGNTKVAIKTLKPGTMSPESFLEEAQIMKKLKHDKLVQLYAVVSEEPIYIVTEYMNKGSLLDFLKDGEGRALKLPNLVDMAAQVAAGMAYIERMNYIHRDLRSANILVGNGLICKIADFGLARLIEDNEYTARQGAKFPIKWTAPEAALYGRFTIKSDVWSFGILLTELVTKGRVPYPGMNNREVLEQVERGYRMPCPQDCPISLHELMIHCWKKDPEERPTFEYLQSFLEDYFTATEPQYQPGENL

[22] = target: Tyrosine-protein kinase Tec (Homo sapiens) (UniProt P42680); test: Inhibition of human activated TEC assessed as enzyme activity at 1 uM relative to control; parameters: scale not given: the % may be the effect or the level left
[23] = Apparent permeability of the compound from apical to basolateral direction in pig LLC-PK1 cells; assay type: ADME, cell-based, Sus scrofa
[24] = target: Serine/threonine-protein kinase PLK1 (Homo sapiens) (UniProt P53350); test: Inhibition of human Plk1 assessed as enzyme activity at 1 uM relative to control; parameters: scale not given: the % may be the effect or the level left
[25] = target: Mitogen-activated protein kinase 10 (Homo sapiens) (UniProt P53779); test: Inhibition of human JNK3 assessed as enzyme activity at 1 uM relative to control; parameters: scale not given: the % may be the effect or the level left
[26] = target: Platelet-derived growth factor receptor alpha (Homo sapiens) (UniProt P16234); test: Inhibition of human PDGFRalpha assessed as enzyme activity at 1 uM relative to control; parameters: scale not given: the % may be the effect or the level left
[27] = target: Serine/threonine-protein kinase Chk2 (Homo sapiens) (UniProt O96017); test: Inhibition of human CHK2 assessed as enzyme activity at 1 uM relative to control; parameters: scale not given: the % may be the effect or the level left
[28] = target: Ribosomal protein S6 kinase alpha-1 (Homo sapiens) (UniProt Q15418); test: Inhibition of human Rsk1 assessed as enzyme activity at 1 uM relative to control; parameters: scale not given: the % may be the effect or the level left
[29] = target: Ephrin type-B receptor 1 (Homo sapiens) (UniProt P54762); test: Inhibition of human EphB1 assessed as enzyme activity at 1 uM relative to control; parameters: scale not given: the % may be the effect or the level left
Chain of Ephrin type-B receptor 1 (Homo sapiens) (P54762 whole entry): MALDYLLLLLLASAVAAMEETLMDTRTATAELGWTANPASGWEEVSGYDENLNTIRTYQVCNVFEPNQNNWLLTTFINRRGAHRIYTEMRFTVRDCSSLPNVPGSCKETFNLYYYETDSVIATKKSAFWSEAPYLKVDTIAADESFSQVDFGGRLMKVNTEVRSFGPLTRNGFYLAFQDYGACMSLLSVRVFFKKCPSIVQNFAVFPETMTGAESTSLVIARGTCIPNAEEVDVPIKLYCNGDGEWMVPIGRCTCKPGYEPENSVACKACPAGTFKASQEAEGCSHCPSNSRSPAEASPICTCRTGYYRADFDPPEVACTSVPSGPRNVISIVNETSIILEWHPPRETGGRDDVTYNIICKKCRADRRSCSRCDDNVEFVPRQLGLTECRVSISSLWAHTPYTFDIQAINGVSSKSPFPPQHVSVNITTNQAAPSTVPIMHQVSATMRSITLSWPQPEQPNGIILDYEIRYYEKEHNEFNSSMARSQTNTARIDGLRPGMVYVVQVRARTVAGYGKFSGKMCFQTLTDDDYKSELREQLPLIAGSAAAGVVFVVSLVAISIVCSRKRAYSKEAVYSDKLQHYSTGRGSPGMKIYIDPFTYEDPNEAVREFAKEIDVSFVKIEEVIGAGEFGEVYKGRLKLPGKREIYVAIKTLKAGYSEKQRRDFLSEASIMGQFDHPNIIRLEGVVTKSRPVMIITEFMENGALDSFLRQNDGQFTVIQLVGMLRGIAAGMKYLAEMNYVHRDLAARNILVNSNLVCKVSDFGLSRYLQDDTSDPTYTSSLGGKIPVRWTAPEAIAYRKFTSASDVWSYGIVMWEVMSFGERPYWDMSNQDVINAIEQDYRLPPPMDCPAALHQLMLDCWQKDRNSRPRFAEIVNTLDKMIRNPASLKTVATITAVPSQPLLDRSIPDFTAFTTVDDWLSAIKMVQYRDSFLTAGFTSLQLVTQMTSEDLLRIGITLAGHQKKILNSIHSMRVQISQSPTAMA

[30] = target: Serine/threonine-protein kinase Nek7 (Homo sapiens) (UniProt Q8TDX7); test: Inhibition of human NEK7 assessed as enzyme activity at 1 uM relative to control; parameters: scale not given: the % may be the effect or the level left
[31] = target: Ephrin type-B receptor 2 (Homo sapiens) (UniProt P29323); test: Inhibition of human EphB2 assessed as enzyme activity at 1 uM relative to control; parameters: scale not given: the % may be the effect or the level left
[32] = target: Inhibitor of nuclear factor kappa-B kinase subunit beta (Homo sapiens) (UniProt O14920); test: Inhibition of human IKKbeta assessed as enzyme activity at 1 uM relative to control; parameters: scale not given: the % may be the effect or the level left
[33] = target: Testis-specific serine/threonine-protein kinase 2 (Homo sapiens) (UniProt Q96PF2); test: Inhibition of human TSSK2 assessed as enzyme activity at 1 uM relative to control; parameters: scale not given: the % may be the effect or the level left
[34] = target: Cytoplasmic tyrosine-protein kinase BMX (Homo sapiens) (UniProt P51813); test: Inhibition of human Bmx assessed as enzyme activity at 1 uM relative to control; parameters: scale not given: the % may be the effect or the level left
[35] = target: Serine/threonine-protein kinase DCLK2 (Homo sapiens) (UniProt Q8N568); test: Inhibition of human DCAMKL2 assessed as enzyme activity at 1 uM relative to control; parameters: scale not given: the % may be the effect or the level left
[36] = target: Serine/threonine-protein kinase PAK 4 (Homo sapiens) (UniProt O96013); test: Inhibition of human PAK4 assessed as enzyme activity at 1 uM relative to control; parameters: scale not given: the % may be the effect or the level left
Chain of Serine/threonine-protein kinase PAK 4 (Homo sapiens) (O96013 whole entry, looked up): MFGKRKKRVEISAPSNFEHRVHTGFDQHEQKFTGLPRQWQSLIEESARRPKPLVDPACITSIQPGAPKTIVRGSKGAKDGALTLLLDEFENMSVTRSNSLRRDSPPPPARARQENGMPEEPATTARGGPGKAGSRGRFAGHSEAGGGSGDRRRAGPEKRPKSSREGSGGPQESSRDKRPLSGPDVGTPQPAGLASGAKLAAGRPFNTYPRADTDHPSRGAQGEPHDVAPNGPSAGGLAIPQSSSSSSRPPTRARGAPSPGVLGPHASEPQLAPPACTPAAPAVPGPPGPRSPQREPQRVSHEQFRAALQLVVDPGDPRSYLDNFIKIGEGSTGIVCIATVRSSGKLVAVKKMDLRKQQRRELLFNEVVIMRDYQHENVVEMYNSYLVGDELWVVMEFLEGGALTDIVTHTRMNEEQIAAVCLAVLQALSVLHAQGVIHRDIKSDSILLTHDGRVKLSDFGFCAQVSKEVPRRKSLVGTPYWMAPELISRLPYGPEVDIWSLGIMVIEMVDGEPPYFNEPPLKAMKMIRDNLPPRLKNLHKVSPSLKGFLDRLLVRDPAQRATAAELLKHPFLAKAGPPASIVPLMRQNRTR

[37] = target: Death-associated protein kinase 2 (Homo sapiens) (UniProt Q9UIK4); test: Inhibition of human DAPK2 assessed as enzyme activity at 1 uM relative to control; parameters: scale not given: the % may be the effect or the level left
Chain of Death-associated protein kinase 2 (Homo sapiens) (Q9UIK4 whole entry, looked up): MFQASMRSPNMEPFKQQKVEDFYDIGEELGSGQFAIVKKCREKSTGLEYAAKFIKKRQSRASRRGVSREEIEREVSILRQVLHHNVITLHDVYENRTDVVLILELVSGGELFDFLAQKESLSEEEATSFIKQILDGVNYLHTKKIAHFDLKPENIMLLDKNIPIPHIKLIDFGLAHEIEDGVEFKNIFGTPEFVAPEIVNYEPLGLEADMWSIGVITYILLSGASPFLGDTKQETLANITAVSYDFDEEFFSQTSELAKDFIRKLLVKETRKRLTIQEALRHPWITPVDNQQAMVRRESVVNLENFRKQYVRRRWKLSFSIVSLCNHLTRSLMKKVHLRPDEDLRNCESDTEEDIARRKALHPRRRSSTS

[38] = target: Serine/threonine-protein kinase Chk1 (Homo sapiens) (UniProt O14757); test: Inhibition of human CHK1 assessed as enzyme activity at 1 uM relative to control; parameters: scale not given: the % may be the effect or the level left
[39] = species on record: Sus scrofa; test: Inhibition of […] pig Abl assessed as enzyme activity at 1 uM relative to control; parameters: scale not given: the % may be the effect or the level left

Activity [1]: 118%
Activity [2]: 97%
Activity [3]: 93%
Activity [4]: 108%
Activity [5]: 109%
Activity [6]: 110%
Activity [7]: 108%
pIC50 [8]: 9.52
Activity [10]: 119%
Activity [11]: 95.5%
Activity [12]: 116%
Activity [13]: 97%
Activity [14]: 103%
Activity [15]: 104%
Activity [16]: 90%
Activity [17]: 102%
Activity [18]: 99.5%
Activity [19]: 99%
clearance [20]: 1.6 mL/min/kg
Activity [21]: 91.5%
Activity [22]: 102%
Papp A→B [23]: > 8 ×10⁻⁶ cm/s
Activity [24]: 90.5%
Activity [25]: 104%
Activity [26]: 102%
Activity [27]: 100%
Activity [28]: 145%
Activity [29]: 101%
Activity [30]: 110%
Activity [31]: 94.5%
Activity [32]: 104%
Activity [33]: 118%
Activity [34]: 91.5%
Activity [35]: 148%
Activity [36]: 92%
Activity [38]: 106%
Activity [39]: 93%
Structure (SMILES): CCCS(=O)(=O)Nc1cccc(Nc2ccc3ncn(C)c(=O)c3c2)c1C#N
inhibition in vivo at 30 mg/kg [9]: 99%
Activity [37]: 108%
